Assay results as given in patent US12029777B2, “Serine proteinase inhibitors: Serp-1 and Serp-1 RCL-derived peptides effect on microbiome composition and uses thereof” (ARIZONA BOARD OF REGENTS ON BEHALF OF ARIZONA STATE …, priority 2019, dated 2024).
Entries after “also recorded” stand apart in the source; their conditions may differ.

B1: Serp-1: secreted myxomavirus-derived serine protease inhibitor (serpin), purified protein, SEQ ID NO: 1 (protein)
chain: MKYLVLVLCLTSCACRDIGLWTFRYVYNESDNVVFSPYGLTSALSVLRIAAGGNTKREIDVPESVVEDSDAFLALRELFVDASVPLRPEFTAEFSSRFNTSVQRVTFNSENVKDVINSYVKDKTGGDVPRVLDASLDRDTKMLLLSSVRMKTSWRHVFDPSFTTDQPFYSGNVTYKVRMMNKIDTLKTETFTLRNVGYSVTELPYKRRQTAMLLVVPDDLGEIVRALDLSLVRFWIRNMRKDVCQVVMPKFSVESVLDLRDALQRLGVRDAFDPSRADFGQASPSNDLYVTKVLQTSKIEADERGTTASSDTAITLIPRNALTAIVANKPFMFLIYHKPTTTVLFMGTIT
modifications: Serp-1 recombinant polypeptide

Key:
MHV-68 [1] = experiment: Survival after lethal intraperitoneal MHV-68 infection of IFNγR−/− mice; format: in vivo; details: for survival at 150 days: 100 ng/g IP injections for 30 days, no antibiotics, MHV-68 infected IFNγR−/− mice; for median survival: 10 days antibiotic pre-treatment, then MHV-68 infection and 30 days IP treatment; for efficacy after antibiotic treatment versus saline treatment after antibiotics: +Abx vs Saline+Abx, survival; for survival after MHV-68 infection (modified S-7 peptides): MHV-68 infection model
Excerpt: Animals. IFNγR^−/− mice (B6.129S7-Ifngr1^tm1Agt/J) were purchased from the Jackson Laboratory (Bar Harbor, ME, USA). Animals were housed in barrier conditions at the University of Florida Animal Care Services vivarium and bred under specific pathogen-free conditions. Mice were weaned at 3 weeks, maintained on a 12-hour light-dark cycle and were fed water and standard rodent chow ad libitum.
Antibiotic treatment. At 4 weeks of age, IFNγR^−/− mouse cohorts were transferred from the ABSL1 colony to a separate, ABSL2 colony. Gut microbiome suppression was achieved by replacing standard drinking water with autoclaved reverse osmosis water (obtained from the same animal care facility) containing an antibiotic cocktail (Table 1) composed of Streptomycin (2 g/L), Gentamicin (0.5 g/L), Bacitracin (1 g/L) and Ciprofloxacin (0.125 g/L) for 10 days. One day (24 hours) prior to infection, medicated water was replaced with standard animal care facility water, which was maintained for the remainder of the experiment.
MHV-68 infection. On day 11 (after 10 days of antibiotics) mice (5 weeks old) were infected with MHV-68 at a dose of 12.5×10^6 PFU in 0.1 mL DMEM by intraperitoneal (IP) injection as previously described22,25,27,30. Mice were returned to the colony and monitored for signs of distress for the duration of the experiment. Mice were either followed for 150 days to determine survival or euthanized at 3 days post-infection and organs harvested into formalin for histology or RNAlater (Thermo Scientific, USA) for microbiome analyses. Details on the numbers of MHV-68-infected mice in this study are detailed in Table 2.
Statistical analysis. Survival and pathology statistics were analyzed with GraphPad Prism v8.0.1. Kaplan-Meier survival statistics were calculated using Log-rank (Mantel-Cox) testing. For visualization, individual comparison curves are presented. Lung pathology statistics were compared using a Two-Way ANOVA with a Fisher's LSD or Tukey's post-hoc test. Bars are mean±standard error. P-value less than 0.05 was considered significant. *p<0.05, **p<0.01, ***p<0.001, ****p<0.0001; n.s. is not significant.
MHV-68 infections establish latency with chronic infection in wildtype mice, causing only flu-like symptoms. Conversely, intraperitoneal infection of mice with underlying immune deficiency, as for IFNγR^−/− mice, results in a lethal large vessel vasculitis, colitis and hemorrhagic pneumonia with early mortality. Intranasal infection, an alternative model for MHV-68, is not a model for severe vasculitic syndromes. This intraperitoneal infection model of vasculitis has been used to study the pathogenesis of gammaherpesvirus host-pathogen interactions, as well as to investigate the potential for anti-inflammatory treatment of associated inflammatory vasculitic syndromes. Intraperitoneal infection of IFNγR−/− mice with 12.5×10^6 pfu was performed with follow-up for 150 days to determine survival rates. MHV-68 infection with administration of control saline treatment alone for 30 days was lethal, with a median survival of 41 days. […] Thus, Serp-1 and S-7 protect IFNγR−/− mice after lethal MHV-68 infection.
The potential for dependence of Serp-1 and S-7 therapeutic efficacy on the gut bacterial microbiome in MHV-68 infected IFNγR^−/− mice was investigated. Mice were treated with medicated drinking water (Table 1) for 10 days, placed on normal water for 24 hours, then infected with MHV-68 and concurrently treated for 30 days with either Serp-1 or S-7 by IP injection. Mice were followed for survival or 3-day follow-up (FIG. 2A).

MHV-68 [2] = experiment: Lung histopathology and quantitative morphometry at 3 days after MHV-68 infection; format: in vivo, mice; details: for severe pulmonary pathology (consolidation and inflammation): absence of antibiotics, vs saline; for severe pulmonary pathology (consolidation and inflammation) / early lung pathology after antibiotic treatment: 3-day follow-up; for alveolar wall thickness: no antibiotics, versus saline-treated controls; for alveolar lumen area: without antibiotic pre-treatment, compared to saline-treated controls
Method: Histopathology. Mice were euthanized at 3 days follow-up after infection by carbon dioxide asphyxiation followed by cervical dislocation. Organs were harvested and fixed in 10% neutral buffered formalin. Samples were dehydrated through graded alcohol, paraffin-embedded, sectioned into 4-6 μm ribbons, captured on charged glass and dried overnight at 37° C. prior to processing for histopathology. Slides were rehydrated, stained with Gill's hematoxylin No. 3 and Eosin Y (H&E) according to standard procedure, dehydrated and mounted in Cytoseal XYL (Thermo Fisher Scientific, USA).
Quantitative morphometry. H&E-stained aorta, lung and colon sections were imaged with a 20×/0.5NA objective on an Olympus BX51 microscope equipped with an Olympus DP74 camera operated by cellSens Dimensions v1.16 software. Objective-calibrated measurements of alveolar septal thickness and lumen area were collected using cellSens Dimensions. At least 50 measurements were collected and averaged for each mouse, and at least three mice were examined for each group. Images were processed for visualization in figures using ImageJ/FIJI v1.52i92.

[3] = system: CD3+, CD4+ and CD8+ cells in the lungs; experiment: Immunohistochemistry of CD3+, CD4+, CD8+ cells in lungs at 3 days after MHV-68 infection; format: in vivo, mice; details: for CD3 infiltration-promoting effect and CD8 bias after antibiotic treatment: after antibiotic depletion of gut microbiome; for CD8+ staining in lungs / detectable CD3+ cells in the lungs / pulmonary CD4+ cells: no antibiotics, 3-day follow-up
Method: (§1) Immunohistochemistry. FFPE blocks containing lung tissue were sectioned into 4-6 μm ribbons, captured on charged glass and dried overnight at 37° C. prior to processing. Slides were rehydrated and epitopes retrieved by boiling in sodium citrated buffer. Endogenous peroxidases were quenched with 3% hydrogen peroxide, slides were blocked in 5% bovine serum albumin in TBS/0.1% Tween 20 and sections were probed with rabbit polyclonal antibody against CD3 (Abcam ab5690; 1:200), CD4 (Abcam ab183685; 1:1000) or CD8 (Abcam ab209775; 1:2000). For MHV-68 detection, 1:500 rabbit anti-serum or pre-immune serum (as control) were used for immunostaining (kind gift of Dr. H. W. Virgin 1119). 1:500 goat anti-rabbit HRP was used for secondary staining (Jackson Immuno Research 111-035-144). […] Sections were imaged with a 40×/0.75NA objective.

MHV-68 [4] = experiment: MHV-68 antigen immunostaining in lungs at 3 days after infection; format: in vivo, mice; details: for MHV-68 antigen levels in the lungs: without antibiotic treatment, 3-day follow-up
Method: as §1

uPA = uPA (Homo sapiens, UniProt P00749); experiment: In vitro uPA substrate conversion assay; format: biochemical; details: presence of the antibiotic cocktail

Molecule	survival at 150 days (MHV-68 [1])	median survival (MHV-68 [1])	efficacy after antibiotic treatment versus saline treatment after antibiotics (MHV-68 [1])	severe pulmonary pathology (consolidation and inflammation) (MHV-68 [2])	early lung pathology after antibiotic treatment (MHV-68 [2])	alveolar lumen area protection after antibiotic treatment (MHV-68 [2]; after antibiotics)	reduction in alveolar wall thickness after treatment with antibiotics (MHV-68 [2]; after antibiotics)	alveolar wall thickness (MHV-68 [2])	alveolar lumen area (MHV-68 [2])	CD3 infiltration-promoting effect and CD8 bias after antibiotic treatment [3]	CD8+ staining in lungs [3]	detectable CD3+ cells in the lungs [3]	pulmonary CD4+ cells [3]	decrease in detectable MHV68 after antibiotic pre-treatment (MHV-68 [4])	MHV-68 antigen levels in the lungs (MHV-68 [4])	survival after MHV-68 infection (modified S-7 peptides) (MHV-68 [1])	inhibition of uPA activity in presence of broad-spectrum antibiotic cocktail (uPA)
GTTASSDTAITLIPR (Reactive Center Loop Polypeptide sequence of for a serine protease inhibitor) [S-7]	60%	18 days	not significantly different	considerably reduced	markedly worse	nullified any level of protection	lost	significant reduction	significantly increased	loss	significant increases	significantly increased	no appreciable effect	partially reversed	significantly reduced		
GTTASSDTAITLEPR (Modified S-7 peptide MPS7-8)																improved survival	
GTTASSDTAITDEPR (Modified S7 peptide MPS7-9)																improved survival	
B1	60%	19 days	not significantly different	considerably reduced	markedly worse		lost	significant reduction	trend toward an increase	loss	strong trend towards increase	trended towards increasing	no appreciable effect	partially reversed	significantly reduced		unaffected; also recorded: not affected
